Data reported in patent publication US10876096B2, “Cell culture medium for enhanced hepatocyte function” (Corning Incorporated, priority 2012, dated 2020).

How the values were obtained:
[1] = system: mRNA for drug metabolism enzymes and hepatic proteins; experiment: Relative mRNA levels by real-time PCR in primary human hepatocytes; assay type: cell-based; details: 10 μM
Method: The effects of LEF, LFM, and LFM-A13 on gene expression are tested. Briefly, primary human hepatocytes cultured on collagen I coated surface are incubated with Corning hepatocyte medium containing vehicle control, 10 μM LEF, 10 μM LFM, and 10 μM LFM-A13, respectively. At the end of 48-hour incubation, total RNA is isolated and relative mRNA levels are quantified using real-time PCR. The results are shown in FIG. 6, where CYP is cytochrome P450 enzyme, SULT is sulfotransferase, UGT is UDP-glucuronosyltransferase, ABC is ATP-binding cassette transporters, AHR is aryl hydrocarbon receptor, CAR is constitutive androstene receptor, and PXR is pregnenolone x-receptor.
The effect of LFMA-13 on levels of mRNA encoding a wider variety of drug metabolism enzymes and other proteins of primary human hepatocytes is tested. Briefly, primary human hepatocytes cultured on collagen I coated surface are incubated with Corning hepatocyte medium containing vehicle control and 10 μM LFM-A13, respectively. At the end of 48-hour incubation, total RNA is isolated and relative mRNA levels are quantified using real-time PCR. The results are shown in FIG. 7, where ABC is ATP-binding cassette transporters, CYP is cytochrome P450 enzyme, SLC is solute carrier transporter, SULT is sulfotransferase, UGT is UDP-glucuronosyltransferase, GST is glutathione S-transferase, AHR is aryl hydrocarbon receptor, FOXO is forkhead box receptors, HNF is hepatic nuclear factor, NCO is nuclear receptor coactivator, NR is nuclear receptor, PPARGC1A is peroxisome proliferator-activated receptor gamma coactivator 1-alpha, RXR is retinoid X receptor, and VDR is vitamin D receptor.

[2] = system: human embryonic stem cells (hESCs) derived hepatocytes; experiment: Immunostaining of hepatic markers in hESC derived hepatocytes; assay type: cell-based; details: Corning hepatocyte medium, 10 μM, 7 days, versus absence (FIG. 9)
Method: The effects of LFM-A13 on human embryonic stem cells (hESCs) derived hepatocytes are evaluated. Briefly, hESCs are committed to the hepatocyte lineage using methods known to those skilled in the art and then are cultured in Corning hepatocyte medium in the presence or absence of 10 μM LFM-A13. After 7 days, the stem cell derived hepatocytes are immunostained with primary antibodies to detect expression of hepatocyte proteins; (b) to test for the presence of albumin (ALB), a hepatic precursor marker; and (c) to test for the presence of multidrug resistance-associated protein 2 (MRP2), a member of the superfamily of ATP-binding cassette (ABC) transporters and a marker for hepatic function. Nuclei of cells are counterestained with 4′,6-diamidino-2-phenylindole dihydrochloride (DAPI) to visualize all cells (FIG. a). As depicted, hESCs cultured in the absence of LFM-A13 (left column) have low levels of hepatic markers (ALB and MRP2). In contrast, hESCs cultured in the presence of LFM-A13 (right column) have higher levels of hepatic markers (ALB and MRP2).

[3] = system: hepatic markers (ALB, AFP, CYP3A4, CYP7A1, PGC1a); experiment: Real-time PCR mRNA expression of hepatic markers in differentiated hESCs; assay type: cell-based, human; details: collagen coated plates with or without Matrigel overlay (FIG. 11)
Method: The effect of LFM-A13 on rifampicin-induced CYP3A4 activity and on mRNA expression of a variety of hepatic markers is also determined on the differentiated hESCs. […] In FIG. 11, ALB is albumin, AFP is alpha-fetoprotein, CYP3A4 is cytochrome p450 3A4, CYP7A1 is cytochrome p450 7A1, and PGC1a is […] (COL=collagen I coated plate; MOL=Matrigel overlay).

[4] = biological target: BTK (Homo sapiens, UniProt Q06187); details: reported, U.S. Pat. No. 6,303,652; cited from earlier work
[5] = system: Polo-like kinase (PLK); details: stated as known; cited from earlier work
[6] = system: liver cells; experiment: Drug metabolism activity / global hepatic function of liver cells with other BTK inhibitors and PLK siRNA; assay type: cell-based
Excerpt: […] The broad enhancement of hepatic function seen with LFM-A13 is not observed with these structurally unrelated BTK inhibitors.

Sequence of BTK (Q06187 whole entry, species assumed): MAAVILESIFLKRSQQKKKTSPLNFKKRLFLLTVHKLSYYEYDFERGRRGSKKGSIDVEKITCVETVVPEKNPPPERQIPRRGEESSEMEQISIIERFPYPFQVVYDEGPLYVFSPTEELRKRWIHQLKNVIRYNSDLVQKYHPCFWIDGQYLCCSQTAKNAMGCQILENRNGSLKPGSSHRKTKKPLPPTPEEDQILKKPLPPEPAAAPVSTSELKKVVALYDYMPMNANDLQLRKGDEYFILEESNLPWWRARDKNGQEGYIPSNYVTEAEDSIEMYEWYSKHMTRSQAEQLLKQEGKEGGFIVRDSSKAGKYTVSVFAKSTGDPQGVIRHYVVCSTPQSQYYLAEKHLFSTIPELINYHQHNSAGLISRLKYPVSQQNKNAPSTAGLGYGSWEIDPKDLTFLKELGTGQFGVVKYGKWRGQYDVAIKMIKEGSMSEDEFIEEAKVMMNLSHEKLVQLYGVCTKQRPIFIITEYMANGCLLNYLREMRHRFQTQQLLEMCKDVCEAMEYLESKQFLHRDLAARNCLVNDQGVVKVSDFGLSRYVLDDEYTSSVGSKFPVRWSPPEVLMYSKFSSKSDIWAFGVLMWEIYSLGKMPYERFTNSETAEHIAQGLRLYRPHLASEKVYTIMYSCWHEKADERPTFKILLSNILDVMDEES

SMILES	AHR mRNA level ([1]; 48 h (FIG. 6))	CYP1A2 mRNA level ([1]; 48 h (FIG. 6))	CYP2B6 mRNA level ([1]; 48 h (FIG. 6))	CYP3A4 mRNA level ([1]; 48 h (FIG. 6))	UGT1A1 mRNA level ([1]; 48 h (FIG. 6))	mRNA levels of some of the ABC transporters ([1]; 48 h (FIG. 6))	mRNA levels of a wide variety of drug metabolism enzymes, including many CYPs ([1]; 48 h (FIG. 7))	level of hepatic marker MRP2, immunostaining [2]	level of hepatic marker albumin (ALB), immunostaining [2]	expression of hepatic markers (mRNA) [3]	BTK inhibition [4]	PLK inhibition [5]	broad enhancement of hepatic function / global hepatic enhancement [6]
C/C(O)=C(/C#N)C(=O)Nc1cc(Br)ccc1Br [LFM-A13, α-Cyano-β-Hydroxy-β-Methyl-N-(2,5-Dibrobophenyl)Propenamide]	greatly increased	greatly increased	greatly increased	greatly increased	greatly increased	greatly increased	increased levels	higher levels	higher levels	enhanced expression	potent BTK inhibitor	Polo-like kinase (PLK) inhibitor	
CC1=C(O)C(=O)[C@@H]2O[C@@H]2C1=O [Terreic acid]													not observed
